Laboratory results: patent US11656182B2, “Method, composition, and chip for detecting analyte in blood sample” (TERUMO KABUSHIKI KAISHA, priority 2016, dated 2023)
Values after ≈ are worked out from the molar mass of the structure shown. “Also recorded” adds a separate entry of the source. Where two headings read alike, the source gives them in different places.

How the values were obtained:
[1] = Spectrum analysis of detection chip before blood sample is deposited (transmittance of refractive index adjuster at 650 nm); assay type: physicochemical; settings: absorption peak wavelength of WST-4
Procedure: The outline of an evaluation system used in spectrum analysis will be described below. Further, the outline of the evaluation system is illustrated in FIG. 6.
Light source: Halogen light source SPL-2H (KLV Co., Ltd.)
Conforming fiber: Core diameter=200μ or more
Spectrometer: Small fiber optical spectrometer USB2000+(Ocean Optics, Inc.)
The spectrum analysis was performed using the blood glucose value detection chips obtained in each of Embodiments and Comparative Embodiments. Incidentally, since the spacer thickness of the blood glucose value detection chip is 50 μm, the optical path length becomes 50 μm. […] Incidentally, the correction of the absorbance was performed by dividing the absorbance (actual measurement value) in each measurement wavelength by the value of the clearance (CL) (μm) actually measured in each chip and further multiplying the obtained value by […].
In the conditions of respective Embodiments and Comparative Embodiments, the value of absorbance at 650 nm (the absorption peak wavelength of WST-4) measured using the chip before the blood sample is deposited is not substantially different from the absorbance value measured by dissolving the refractive index adjuster in water and setting an optical path length of 50 μm. Therefore, from the transmittance curve before the blood sample is deposited, the transmittance of the refractive index adjuster in 650 nm that is the absorption peak wavelength of WST-4 was obtained. Incidentally, in Table 1, “⊙” represents that the transmittance at 650 nm is 60% or more and 100% or less, “◯” represents that the transmittance at 650 nm is 40% or more and less than 60%, and “X” represents that the transmittance at 650 nm is less than 40%.

[2] = Precipitates by visual inspection before drying after coating film formation; assay type: physicochemical; settings: coating liquid
Text: In the production step of the blood glucose value detection chip, existence of precipitates was confirmed by visual inspection before drying after coating film formation.

[3] = Degree of solubility with respect to water at 20° C.; assay type: physicochemical
[4] = Solubility observed in preparation of coating liquid and chip (Comparative Embodiments)
Text: Further, the solubility with respect to the blood sample was low, so that the spectrum analysis was not able to be performed.

[5] = Refractive index increasing capability of refractive index adjuster (refractometer, aqueous solutions); assay type: physicochemical; settings: increase amount of the refractive index per 1 [mg/ml]; inclination of approximate straight line, aqueous solutions 0 to 350 mg/ml
Procedure: Aqueous solutions prepared to have a plurality of concentrations within a range of 0 to 350 mg/ml were prepared for the respective refractive index adjusters. The refractive index of each aqueous solution was obtained with a refractometer PAL-RI (ATAGO CO., LTD.). A graph was created in which the concentration of each aqueous solution is plotted on the horizontal axis and the refractive index is plotted for each refractive index adjuster on the vertical axis, and the inclination of the approximate straight line was obtained (a value of “Refractive index increasing capability” in Table 1 indicates an increase amount of the refractive index per 1 [mg/ml], and a larger inclination indicates higher refractive index increasing capability of the refractive index adjuster). Incidentally, “unmeasurable” in Table 1 means that an aqueous solution could not be prepared due to generation of precipitates.

red blood cell = assay: Red blood cell reducing capability of refractive index adjuster (hematocrit value change); assay type: cell-based; settings: 50 mM in blood sample, hematocrit value 40 before addition, 5 minutes after mixing
Procedure: 400 μL of blood plasma was recovered from 1.0 ml of blood sample (hematocrit value: 40). A refractive index adjuster was added to 400 μL of the recovered blood plasma to have a concentration of 125 mM. The blood plasma after addition of the refractive index adjuster combined with the original blood sample and mixed by inverting (the concentration of the refractive index adjuster in the blood sample becoming 50 mM). The sample after 5 minutes from mixing by inverting was filled in a hematocrit tube and was separated by centrifugation with a hematocrit centrifuge at 11×10^3 rpm for 5 minutes. A hematocrit value (Ht) after separation by centrifugation was read. […] Incidentally, “unmeasurable” in Table 1 means that the degree of solubility of the refractive index adjuster was low so that measurement could not be performed.

[6] = chip with coating liquid, blood sample

Compound	Transmittance 650 nm (Coloring reagent absorption peak wavelength) [1]	Precipitates [2]	Degree of solubility (class) [3]	solubility with respect to the blood sample [4]	solubility with respect to water [4]	Refractive index increasing capability [5]	Red blood cell reducing capability (ΔHt) (red blood cell)	Degree of solubility [3]	solubility [3]	solubility with respect to the blood sample [4, 6]
CCN(CC)c1ccc(C(=C2C=CC(=[N+](CC)CC)C=C2)c2ccc(S(=O)(=O)[O-])cc2S(=O)(=O)[O-])cc1.[Na+] [Acid Blue 1, reference compound]	×	precipitates were generated; also recorded: Present	×	low	low					
O=S(=O)([O-])c1ccc2c(N=Nc3ccc(S(=O)(=O)[O-])c4ccccc34)c(O)c(S(=O)(=O)[O-])cc2c1.[Na+].[Na+].[Na+] [Acid Red 27]	◯ (the transmittance at 650 nm is 40% or more and less than 60%)	Absent				0.000381	6.7	83 mM		
O=C([O-])C1=NN(c2ccc(S(=O)(=O)[O-])cc2)C(=O)C1N=Nc1ccc(S(=O)(=O)[O-])cc1.[Na+].[Na+].[Na+] (centres unmarked) [Acid Yellow 23]	⊙ (the transmittance at 650 nm is 60% or more and 100% or less)	Absent				0.000277	8.2	487 mM		
O=S(=O)(O)c1cccc(S(=O)(=O)O)c1 [DSB, 1,3-benzene disulfonate]	⊙ (the transmittance at 650 nm is 60% or more and 100% or less)	Absent				0.000126	9.0			
O=S(=O)(O)c1cc(S(=O)(=O)O)c2c(/N=N/c3ccccc3)c(O)ccc2c1 [Orange G]	⊙ (the transmittance at 650 nm is 60% or more and 100% or less)	Absent				0.000296	1.9	220 mM		
OC[C@H]1O[C@H](O[C@]2(CCl)O[C@H](CCl)[C@@H](O)[C@@H]2O)[C@H](O)[C@@H](O)[C@H]1Cl [Sucralose, sucralose]	⊙ (the transmittance at 650 nm is 60% or more and 100% or less)	Absent				0.000129	0.5		820 mM (≈ 326 mg/mL)	
OC[C@H]1O[C@H](O[C@H]2O[C@H](CO)[C@@H](O)[C@H](O)[C@H]2O)[C@H](O)[C@@H](O)[C@@H]1O [Trehalose, trehalose]	⊙ (the transmittance at 650 nm is 60% or more and 100% or less)	Absent				0.000109	3.5		200 mM (≈ 68.5 mg/mL)	
O=[N+]([O-])c1ccc(-[n+]2nc(-c3ccc(S(=O)(=O)[O-])cc3S(=O)(=O)[O-])nn2-c2ccc(I)cc2)cc1.[Na+] [Wst-1, 2-(4-iodophenyl)-3-(4-nitrophenyl)-5-(2,4-disulfophenyl)-2H-tetrazolium sodium salt, reference compound]	×	Absent				0.000174				low
COc1cc([N+](=O)[O-])ccc1-n1nc(-c2ccc(S(=O)(=O)[O-])cc2S(=O)(=O)[O-])n[n+]1-c1ccc([N+](=O)[O-])cc1.[Na+] [Wst-8, 2-(2-methoxy-4-nitrophenyl)-3-(4-nitrophenyl)-5-(2,4-disulfophenyl)-2H-tetrazolium sodium salt, reference compound]	×	Absent				0.000189				low
Acid Fuchsin [reference compound]	×	Absent				0.000259	14.3	340 mM		
